Reference: the supplement of paper PMC10307832

How the values were obtained:
Experiment in all cases: relative viability (nuclei count vs DMSO), 5 days (fraction); higher = more cells survive
[1] = compound: COC1=CC(c2cc3ccccc3[nH]2)=N/C1=C\c1[nH]c(C)cc1C [Obatoclax] + NC(=O)Nc1cc(-c2cccc(F)c2)sc1C(=O)N[C@H]1CCCNC1 [AZD7762] (partner 0.2 µM)
Summary of the method: (§1)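 Lung cancer cell lines in 1536-well plates got either a single drug or a fixed anchor-drug dose together with five library-drug doses (not always all listed) in √10 steps, by pin tool, on the day after seeding. Nuclei were counted after 5 days, and relative viability is the treated-to-vehicle ratio of nuclei counts. Values are medians of duplicate plates.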

[2] = compound: CC(C)C[C@H](NC(=O)[C@H](Cc1ccccc1)NC(=O)c1cnccn1)B(O)O [Bortezomib] + Cc1nc(NC(=O)N2CCC[C@H]2C(N)=O)sc1-c1ccnc(C(C)(C)C(F)(F)F)c1 [Alpelisib] (partner 2 µM)
Summary of the method: as §1

[3] = compound: CC1=CC(=NN1)NC2=CC(=NC(=N2)/C=C/C3=CC=CC=C3)N4CCN(CC4)C + CS(=O)(=O)CCNCc1ccc(-c2ccc3ncnc(Nc4ccc(OCc5cccc(F)c5)c(Cl)c4)c3c2)o1 [Lapatinib] (partner 2 µM)
Summary of the method: as §1

[4] = compound: CC(C)C[C@H](NC(=O)[C@H](Cc1ccccc1)NC(=O)c1cnccn1)B(O)O [Bortezomib] + CCNC(=O)c1noc(-c2cc(C(C)C)c(O)cc2O)c1-c1ccc(CN2CCOCC2)cc1 [Luminespib] (partner 0.01 µM)
Summary of the method: as §1

Cell Line | relative viability ([1]; first compound 0.01 µM) | relative viability ([1]; first compound 0.03162 µM) | relative viability ([1]; first compound 0.1 µM) | relative viability ([1]; first compound 0.3162 µM) | relative viability ([1]; first compound 1 µM) | relative viability ([2]; first compound 0.0002 µM) | relative viability ([2]; first compound 0.000632 µM) | relative viability ([2]; first compound 0.002 µM) | relative viability ([2]; first compound 0.006325 µM) | relative viability ([2]; first compound 0.02 µM) | relative viability ([3]; first compound 0.08 µM) | relative viability ([3]; first compound 0.253 µM) | relative viability ([3]; first compound 0.8 µM) | relative viability ([3]; first compound 2.53 µM) | relative viability ([3]; first compound 8 µM) | relative viability ([4]; first compound 0.0002 µM) | relative viability ([4]; first compound 0.000632 µM) | relative viability ([4]; first compound 0.002 µM) | relative viability ([4]; first compound 0.006325 µM) | relative viability ([4]; first compound 0.02 µM)
201T | 0.608 | 0.601 | 0.579 | 0.614 | 0.702 | 1.03 | 0.993 | 0.975 | 0.951 | 0.31 | 1.02 | 1.07 | 1.04 | 0.946 | 0.915 | 1.03 | 1.01 | 1.09 | 0.745 | 0.215
A549 | – | – | – | – | – | 0.769 | 0.706 | 0.756 | 0.055 | 0.0365 | 0.924 | 0.954 | 0.772 | 0.102 | 0.0367 | – | – | – | – | –
A-427 | 0.746 | 0.757 | 0.496 | 0.467 | 0.441 | 0.991 | 1.03 | 1.05 | 1.11 | 0.0762 | 1.22 | 1.05 | 0.957 | 0.542 | 0.513 | 0.889 | 0.926 | 0.589 | 0.33 | 0.125
ABC-1 | 0.639 | 0.749 | – | 0.817 | 0.839 | 1 | 1.08 | 0.372 | 0.233 | 0.245 | 0.957 | 1.15 | 1.23 | 1.13 | 0.453 | 0.439 | 0.523 | 0.262 | 0.252 | 0.227
BEN | 0.762 | 0.607 | 0.544 | 0.734 | 0.704 | 0.925 | 1.09 | 0.72 | 0.614 | 0.154 | 0.75 | 0.668 | 0.742 | 0.326 | 0.229 | 0.314 | 0.665 | 0.568 | 0.249 | 0.184
CAL-12T | 0.616 | 0.554 | 0.531 | 0.518 | 0.294 | 1.26 | 1.05 | 1.11 | 0.175 | 0.115 | 0.654 | 0.778 | 0.663 | 0.324 | 0.141 | 0.121 | 0.447 | 0.412 | 0.599 | 0.105
COR-L23 | – | – | – | – | – | 0.825 | 0.698 | 0.444 | 0.0416 | 0.0432 | 0.98 | 1.51 | 1.1 | 0.22 | 0.0755 | 0.639 | 0.669 | 0.61 | 0.0526 | 0.058
COR-L 105 | – | – | – | – | – | 0.911 | 1.04 | 0.909 | 0.237 | 0.227 | 0.335 | 0.341 | 0.338 | 0.23 | 0.223 | 0.784 | 0.914 | 0.614 | 0.434 | 0.211
Calu-6 | – | – | – | – | – | 0.961 | 1.01 | 1.04 | 0.123 | 0.0909 | 0.93 | 0.966 | 0.793 | 0.195 | 0.137 | – | – | – | – | –
ChaGo-K-1 | 0.892 | 0.88 | 0.831 | 0.881 | 0.914 | – | – | – | – | – | – | – | – | – | – | 0.577 | 0.554 | 0.683 | 0.356 | 0.169
EBC-1 | – | – | – | – | – | 0.869 | 0.727 | 0.29 | 0.126 | 0.0969 | 0.214 | 0.223 | 0.254 | 0.209 | 0.153 | – | – | – | – | –
EKVX | 0.614 | – | 0.348 | 0.756 | 0.706 | 0.94 | 0.934 | 0.932 | 0.733 | 0.0816 | 0.191 | 0.216 | 0.226 | 0.136 | 0.0912 | 0.833 | 0.827 | 0.89 | 0.646 | 0.113
EMC-BAC-2 | 1.12 | 1.11 | 0.963 | 1.02 | 0.874 | 0.657 | 0.73 | 0.788 | 0.17 | 0.117 | 0.905 | 0.923 | 0.811 | 0.689 | 0.136 | 1.21 | 1.11 | 1.17 | 0.441 | 0.208
EPLC-272H | 0.236 | 0.145 | 0.155 | 0.192 | 0.229 | – | – | 1.09 | 0.943 | 0.115 | 0.893 | 0.99 | 0.868 | 0.462 | 0.157 | 0.36 | 0.143 | 0.217 | 0.148 | 0.115
HCC-78 | 0.745 | 0.669 | 0.694 | 0.633 | 0.596 | 0.331 | 0.359 | 0.258 | 0.136 | 0.148 | 0.673 | 1.04 | 0.87 | 0.68 | 1.27 | – | – | – | – | –
HCC-366 | 0.289 | 0.218 | 0.184 | 0.227 | 0.243 | 0.467 | 0.316 | 0.409 | 0.339 | 0.0134 | 0.928 | 1.13 | 0.996 | 0.0251 | 0.0162 | – | – | – | – | –
